According to patent US5707821A, “Identification of phospholipase A2 inhibitors in Aβ peptide-mediated neurodegenerative disease” (priority 1995, dated 1998):
Read-outs that look alike come from different tables or passages of the source.

Columns and labels:
[1] = Compound toxicity to human cortical neurons in absence of Aβ1-40 (alamarBlue, 3 days); assay type: cell-based; conditions: human, cortical neurons
Protocol: (§1) Cultures of human cortical or hippocampal neurons were prepared using a modification of the procedure described in P. Seubert et al. (1992), Nature 359:325-327. Cortical or hippocampal tissue was dissociated by incubation in a trypsin/EDTA solution (0.05% trypsin +0.53 mM EDTA in HBSS; Gibco) for 20 minutes at 37° C. The trypsin was then inactivated by resuspending the cells in serum-containing medium (MEM/FBS): Modified Eagle's Medium (MEM) containing 1% glucose, 1 mM sodium pyruvate, 1 mM glutamine, and supplemented with 10% fetal bovine serum (Gibco). Cells were then pelleted by centrifugation and resuspended in a chemically-defined medium (MEM/B27): MEM containing B27 supplement (Gibco) in place of FBS. Polyethyleneimine (PEI)-coated 6.4-mm (96-well) dishes were rinsed once with MEM/FBS, and then seeded at 0.75-1.25×10^5 cells per well in 0.1 ml MEM/B27. Cultures were maintained in a H2 O-saturated incubator with an atmosphere of 95% air/5% CO2 at 37° C. The culture medium was exchanged twice weekly.
(§2) The alamarBlue™ assay incorporated a proprietary fluorometric/colorimetric metabolic indicator (Alamar Biosciences, Inc.). Viable cells convert alamarBlue™ from an oxidized (non-fluorescent, blue) form to a reduced (fluorescent, red) form. Assays were performed by replacing the culture media with a 10% alamarBlue™ solution in DMEM (rat cortical cultures) or MEM (human cortical cultures). Reduction of alamarBlue™ was determined spectrofluorometrically using a Millipore Cytofluor 2350 Scanner (excitation, […]; emission, 590 nm) and CytoCalc™ software (Millipore Corporation).
(§3) Human cortical neurons were treated with 50 μM Aβ1-40 and various inhibitors of PLA2 or PLC. Compounds were added at the time of Aβ1-40 treatment at concentrations 390 nM to 100 μM. Compounds were also added to neuronal cultures in the absence of Aβ1-40. Neuronal survival was determined after 3 days of treatment by alamarBlue®. IC50 is the dose of compound that inhibited Aβ-mediated neurotoxicity by 50%. […] Data represents the mean ± SD (n=3). ND, not detected at the concentration range used.

human cortical neurons [2] = experiment: as above; assay type: cell-based
Protocol: as §1, §2, §3

human cortical neurons [3] = experiment: Aβ neurotoxicity / survival of human cortical neurons (alamarBlue), compound added at time of Aβ1-40; assay type: cell-based
Protocol: as §1
(§4) Amyloid-β (Aβ) stock solutions were prepared as 1 mM stocks in sterile ddH2 O immediately prior to addition to cultures. Rat cortical neurons were exposed to Aβ by removing the culture medium and replacing it with DMEM/N2 or DMEM/B27 containing Aβ1-40. Human cortical neurons were exposed to Aβ by removing the culture medium and replacing it with MEM, MEM/N2, or MEM/B27 containing Aβ1-40. Cultures were maintained for 2-4 days before neuronal survival was quantified using alamarBlue™.
as §2
The effect of the two benzenesulfonamide inhibitors of PLA2 in Example 2 were examined to determine the dose-dependence of their effect on neuronal survival in human cortical neuron cultures exposed to 0 μM, 25μM, or 50 μM of Aβ1-40 and varying doses of the benzenesulfonamide.
as §3

human cortical neurons [4] = experiment: Aβ neurotoxicity in human cortical neurons (alamarBlue), 2 h pretreatment with inhibitor; assay type: cell-based; conditions: for Emax / IC50: Homo sapiens, Cortical neurone, 50 μM Aβ1-40, compound 390 nM to 100 μM, 2 h pretreatment and re-added with Aβ, 3 days, n=3; for Emax: 72 h, read-out: Max Inh; for IC50: ND = not detected at the concentration range used, read-out: IC50 (dose that inhibited Aβ-mediated neurotoxicity by 50%)
Protocol: as §1, §4, §2
The effect of pretreating human cortical neuron cultures with the benzenesulfonamide PLA2 inhibitors and arachidonyl trifluoromethyl ketone prior to exposure to a neurotoxic concentration of Aβ1-40 was determined.
(§5) Human cortical neurons were treated with 50 μM Aβ1-40 and various inhibitors of PLA2. Compounds were added 2 hours prior to Aβ1-40 treatment at concentrations of 390 nM to 100 μM, and were then re-added at the time of Aβ1-40 treatment. Compounds were also added in an identical manner to neuronal cultures in the absence of Aβ1-40. Neuronal survival was determined after 3 days of treatment by alamarBlue®. IC50 is the dose of compound that inhibited Aβ-mediated neurotoxicity by 50%. […] Data represents the mean ± SD (n=3). ND, not detected at the concentration range used.

[5] = tested on: IL-1β release by cultured human cortical microglia; experiment: IL-1 release from LPS-stimulated human cortical microglia; assay type: cell-based
Protocol: (§6) Cultures of human cortical or hippocampal astrocytes and microglia were prepared using a modification of the procedure described for cortical neurons. Cortical tissue from fetuses of 16 to 20 weeks of gestation was washed 3 times in Ca^2+ /Mg^2+ free Hanks balanced salt solution (CMF HBSS) and then dissociated by repeated pipetting. The solution was brought to a final volume of 80 ml CMF HBSS for approximately 10 ml of tissue. DNase (Sigma) was added to a final concentration of 0.05 mg/ml. 20 ml of the solution was passed through one 100 μm nylon cell strained (Falcon). The cells were then centrifuged for 5 minutes at 200×G in an IEC Clinical Centrifuge and resuspended in a trypsin/EDTA solution (0.05% trypsin+0.53 mM EDTA in HBSS; Gibco) and incubated for 20 minutes at 37°C. (10 ml of trypsin was added per 2-3 ml of tissue). The trypsin was then inactivated by adding (MEM/FBS): Modified Eagle's Medium (MEM) containing 1% glucose, 1 mM sodium pyruvate, 1 mM glutamine, and supplemented with 10% fetal bovine serum (JRH). After adding a final concentration of 0.05 mg/ml DNase the cells were resuspended and then pelleted by centrifugation and resuspended in MEM/FBS. 1.6×10^8 cells were seeded in a T-150 tissue culture flask coated with polyethyleneimine (PEI). (10% PEI (Sigma) was diluted 1:10 in H2 O, filtered through a […] unit and then diluted into 150 mM sodium borate pH 8.5 at 1:100. The flasks were coated overnight at room temperature, washed two times in PBS and coated with 20 ml/flask of MEM/FBS at 37° C. for at least one hour prior to plating cells.) Cultures were maintained in a H2 O-saturated incubator with an atmosphere of 95% air/5% CO2 at 37° C. The culture medium was changed one and four days after plating and the cultures were then left undisturbed for at least one week. After approximately two weeks in vitro, the flasks were gently shaken and floating microglia were collected and centrifuged for 5 minutes at 200×G in an IEC Clinical Centrifuge. The microglia were reseeded in 96 well tissue culture plates at a density of 5,000-40,000 cells/well in 125 μl in MEM/FBS. Astrocyte cultures were prepared by multiple passaging of the established mixed brain cell cultures. Each T-150 was incubated for 3-4 minutes at 37°C. with a trypsin/EDTA solution (see above). The trypsin was then inactivated by adding MEM/FBS. The cells were triturated and then pelleted by centrifugation and resuspended in MEM/FBS. The cells from one T-150 were seeded at a 1:30 to 1:5 dilution in T-150's not coated. Just prior to confluency the cells were repassaged by trypsinization as described above. This process was repeated until the cultures were >98% pure astrocytes.
(§7) The effects of the benzenesulfonamide PLA2 inhibitor AN20606 and the selective cytosolic PLA2 inhibitor arachidonyl trifluoromethyl ketone (AN20579) were examined in cultured human cortical microglia for their selectivity for inhibiting microglia activation mediated by amyloid-βpeptide and lipopolysaccharides (LPS). LPS are a major constituent of the cell wall of gama-negative bacteria and are extensively used for generating inflammatory responses in cultured cells and in vivo.

Ca^+2 -independent PLA2 = conditions: Ackermann et al. (1995); cited from earlier work
[6] = tested on: TNFα release by cultured human cortical microglia; experiment: TNF release from LPS-stimulated human cortical microglia; assay type: cell-based
Protocol: as §6, §7

cPLA2 = conditions: Street et al. (1993); cited from earlier work
[7] = tested on: TNF-α release by cultured human cortical microglia; experiment: TNF-α release (ELISA) from Aβ1-40-stimulated human microglia; assay type: cell-based
Protocol: as §6
(§8) Cultured microglial cells were treated with 50 μM of Aβ1-40 or vehicle only (Control). The levels of IL-1β, IL-6, and TNF-α released into the culture medium were determined by ELISA assay (R&D Systems) according to manufacturer's instructions.
(§9) The effect of two benzenesulfonamide inhibitors of PLA2 (European Patent Application 468 054) were examined on the activation of microglial cells by Aβ1-40 as in Example 1.
as §7

[8] = tested on: IL-1β release by cultured human cortical microglia; experiment: IL-1β release (ELISA) from Aβ1-40-stimulated human microglia; assay type: cell-based
Protocol: as §6, §8, §9, §7

human cortical neurons [9] = experiment: Compound toxicity to human cortical neurons in absence of Aβ1-40, added as in pretreatment protocol; assay type: cell-based; conditions: no Aβ1-40, 3 days, n=3
Protocol: as §1, §2, §5

[10] = 50 μM Aβ1-40, compound 390 nM to 100 μM added at time of Aβ, 3 days, n=3
[11] = 10 ng/ml LPS, inhibitor 20 μM where present
[12] = 50 μM Aβ1-40, inhibitor 20 μM where present
[13] = 50 μM Aβ1-40, 1 day, compound 0, 5, 10, 20 μM, FIG. 2

In the case of COc1ccc2c(c1)CC[C@@H]1[C@@H]2CC[C@]2(C)[C@@H](NCCCCCCN3C(=O)CCC3=O)CC[C@@H]12 [U73343], the CC50 at 72 h ([1]; no Aβ1-40, 3 days, 390 nM to 100 μM, n=3, ND = not detected at the concentration range used, read-out: TD50 (concentration giving 50% loss of neuronal survival)) is reported as 8 µM, the “TD10 (concentration giving 10% loss of neuronal survival)” value (human cortical neurons [2]; no Aβ1-40, 3 days, 390 nM to 100 μM, n=3) is reported as 6 µM and the “Max Inh” value (human cortical neurons [3]; [10]) is reported as 10%.

In the case of CCCCC/C=C\C/C=C\C/C=C\C/C=C\CCCC(=O)C(F)(F)F [AACOCF3, arachidonyl trifluoromethyl ketone], the “neuronal death resulting from Aβ1-40 exposure (in words)” value (human cortical neurons [4]; pretreatment two hours, three days, FIG. 6) is reported as “substantially decreased neuronal death”, the “IL-1 Released” value [5, 11] is reported as 51 ± 6.4 pg/mL and the activity at 20 µM ([5]; Homo sapiens, Microglia, 10 ng/ml LPS + 20 μM inhibitor, read-out: IL-1 Released, percent in parentheses (relative to LPS alone)) is reported as 225%. For the same compound, the “LPS-mediated cytokine release, IL-1 (in words)” value ([5]; LPS stimulation) was “actually enhanced”, the “inhibition of Ca^+2 -independent PLA2 activity” value (Ca^+2 -independent PLA2) was “capable of inhibiting” and the “TNF Released” value [6, 11] was 785 ± 50 pg/mL. For the same compound, the activity at 20 µM ([6]; Homo sapiens, Microglia, 10 ng/ml LPS + 20 μM inhibitor, read-out: TNF Released, percent in parentheses (relative to LPS alone)) was 161%, the “LPS-mediated cytokine release, TNF (in words)” value ([6]; LPS stimulation) was “actually enhanced” and the “inhibition of cPLA2” value (cPLA2) was “capable of inhibiting”. The “TNF Released” value [7, 12] was 54.8 ± 9.4 pg/mL, the “Aβ1-40-mediated TNFα release, selectivity versus LPS (in words)” value ([7]; Aβ1-40 versus LPS stimulation) was “selectively inhibited” and the activity at 20 µM ([7]; Homo sapiens, Microglia, 50 μM Aβ1-40 + 20 μM inhibitor, read-out: TNF Released, percent in parentheses (relative to Aβ1-40 alone)) was 52%. For the same compound, the “IL-1 Released” value [8, 12] was 36 ± 7.2 pg/mL, the “Aβ1-40-mediated IL-1β release, selectivity versus LPS (in words)” value ([8]; Aβ1-40 versus LPS stimulation) was “selectively inhibited” and the activity at 20 µM ([8]; Homo sapiens, Microglia, 50 μM Aβ1-40 + 20 μM inhibitor, read-out: IL-1 Released, percent in parentheses (relative to Aβ1-40 alone)) was 13%.

In the case of CCN(CC)CCCC(C)Nc1c2ccc(Cl)cc2nc2ccc(OC)cc12 (centres unmarked) [Quinacrine], the CC50 at 72 h [1] is reported as 9 µM, the “TD10 (concentration giving 10% loss of neuronal survival)” value (human cortical neurons [2]; human, 4320 min) is reported as 6 µM and the “Max Inh” value (human cortical neurons [3]; [10]) is reported as 2%.

For CN(C(=O)/C=C/c1ccc(C#N)cc1)c1ccc(S(=O)(=O)NC2CCCCCC2)cc1 [AN20628], the Emax (human cortical neurons [4]) was 87%, the IC50 (human cortical neurons [4]) was 4 µM and the “TD10 (concentration giving 10% loss of neuronal survival)” value (human cortical neurons [2]; human, 4320 min) was 73 µM. For the same compound, the “amount of TNF-α released into the medium (in words)” value [7, 13] was “marked and dose-dependent decrease”, the “neuronal survival in the presence of pathogenic Aβ peptide (in words)” value (human cortical neurons [3]; 0, 25 or 50 μM Aβ1-40, varying doses, FIG. 3, FIG. 4) was “dose-dependent increase in neuronal survival” and the “Max Inh” value (human cortical neurons [3]; [10]) was 82%. The IC50 (human cortical neurons [3]; Homo sapiens, Cortical neurone, 72 h, 50 μM Aβ1-40, compound 390 nM to 100 μM added at time of Aβ, 3 days, n=3, ND = not detected at the concentration range used, read-out: IC50 (dose that inhibited Aβ-mediated neurotoxicity by 50%)) was 8 µM and the “amount of IL-1β released into the medium (in words)” value [8, 13] was “marked and dose-dependent decrease”.

In the case of CN(C)c1ccc(O)c2c1C[C@H]1C[C@H]3[C@H](N(C)C)C(O)=C(C(N)=O)C(=O)[C@@]3(O)C(O)=C1C2=O [Minocycline], the “TD10 (concentration giving 10% loss of neuronal survival)” value (human cortical neurons [9]) is reported as 78 µM, the Emax (human cortical neurons [4]) is reported as 69% and the IC50 (human cortical neurons [4]) is reported as 71 µM.
